Source: ChEMBL document CHEMBL1137019, “Maintenance of therapeutic concentrations of caspofungin after temporary treatment interruption (48 hours) in a child with invasive aspergillosis” (Antimicrob Agents Chemother, 2007)
≈ marks a conversion by molar mass, not a printed value.

Key:
[1] = Trough plasma concentration in child with invasive aspergillosis at 30 mg/day for 5 days measured on last day of therapy; assay type: ADME, organism-based; settings: human, read-out: Cmin
Homo sapiens [2] = assay: Trough plasma concentration in child with invasive aspergillosis administered at 30 mg/day schedule for 5 days followed by 48 hrs temporary treatment interruption measured on first day of resumption of therapy; assay type: ADME, organism-based; settings: in vivo
[3] = Peak plasma concentration in child with invasive aspergillosis at 30 mg/day for 5 days measured on last day of therapy; assay type: ADME, organism-based; set-up: dose 30 mg/day; settings: human
Homo sapiens [4] = assay: Plasma concentration in human at 5 to 100 mg, iv; assay type: ADME, organism-based; settings: in vivo
[5] = Peak plasma concentration in child with invasive aspergillosis administered at 30 mg/day schedule for 5 days followed by 48 hrs temporary treatment interruption measured on first day of resumption of therapy; assay type: ADME, organism-based; set-up: dose 30 mg/day; settings: human
Aspergillus fumigatus = assay: Antifungal activity against Aspergillus fumigatus; assay type: functional

concentration at 120 h [1]: 6700 ng/mL
Cmin (Homo sapiens [2]): 1900 ng/mL
Cmax [3]: 11500 ng/mL
Cp (Homo sapiens [4]): 1000 ng/mL
Cmax [5]: 5600 ng/mL
MIC (Aspergillus fumigatus): 0.5 µg/mL (≈ 0.457 µM)
Structure (SMILES): CC[C@H](C)C[C@H](C)CCCCCCCCC(=O)N[C@H]1C[C@@H](O)[C@@H](NCCN)NC(=O)[C@@H]2[C@@H](O)CCN2C(=O)[C@H]([C@H](O)CCN)NC(=O)[C@H]([C@H](O)[C@@H](O)c2ccc(O)cc2)NC(=O)[C@@H]2C[C@@H](O)CN2C(=O)[C@H]([C@@H](C)O)NC1=O [CASPOFUNGIN]
